{"source": "ChEMBL document CHEMBL4359839", "about": "“The Significance of Chirality in Drug Design and Synthesis of Bitopic Ligands as D3 Receptor (D3R) Selective Agonists” (J Med Chem, 2019)", "key": {"[1]": {"assay": "Drug level in rat liver microsomes treated with trans-N-(2-(2-(((2S,5S)-2-(6-Aminopyridin-3-yl)-5-methylmorpholino)methyl)cyclopropyl)ethyl)-1H-indole-2-carboxamide assessed as metabolite formation at 10 uM measured after 60 mins in presence of NADPH by LC-HRMS analysis", "assay_type": "ADME, Microsome"}, "Homo sapiens [2]": {"species_on_record": "Homo sapiens", "assay": "Selectivity ratio of Ki for displacement of [3H]-(R)-(+)-7-OH-DPAT from recombinant human D2L receptor expressed in HEK293 cell membranes to Ki for displacement of [3H]-(R)-(+)-7-OH-DPAT from recombinant human D3 receptor expressed in HEK293 cell membranes"}, "Homo sapiens [3]": {"species_on_record": "Homo sapiens", "assay": "Selectivity ratio of Ki for displacement of [3H]-(R)-(+)-7-OH-DPAT from recombinant human D4.4 receptor expressed in HEK293 cell membranes to Ki for displacement of [3H]-(R)-(+)-7-OH-DPAT from recombinant human D3 receptor expressed in HEK293 cell membranes"}, "D(4) dopamine receptor": {"target": "T1, D(4) dopamine receptor (Homo sapiens, UniProt P21917)", "T1 sequence (P21917 whole entry)": "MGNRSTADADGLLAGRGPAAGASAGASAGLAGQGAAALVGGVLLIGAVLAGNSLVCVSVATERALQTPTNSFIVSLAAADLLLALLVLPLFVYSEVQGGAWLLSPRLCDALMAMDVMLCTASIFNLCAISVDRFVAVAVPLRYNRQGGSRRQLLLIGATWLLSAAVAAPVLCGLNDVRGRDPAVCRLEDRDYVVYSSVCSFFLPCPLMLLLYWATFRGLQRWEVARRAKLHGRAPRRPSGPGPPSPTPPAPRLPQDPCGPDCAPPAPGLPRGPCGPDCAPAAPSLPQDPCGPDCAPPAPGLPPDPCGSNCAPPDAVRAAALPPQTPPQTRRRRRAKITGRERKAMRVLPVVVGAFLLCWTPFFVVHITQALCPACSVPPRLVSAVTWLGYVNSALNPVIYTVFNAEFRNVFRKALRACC", "assay": "Displacement of [3H]-(R)-(+)-7-OH-DPAT from recombinant human D4.4 receptor expressed in HEK293 cell membranes measured after 90 mins by microbeta scintillation counting analysis"}, "D(3) dopamine receptor": {"target": "D(3) dopamine receptor (Homo sapiens, UniProt P35462)", "sequence (P35462 whole entry)": "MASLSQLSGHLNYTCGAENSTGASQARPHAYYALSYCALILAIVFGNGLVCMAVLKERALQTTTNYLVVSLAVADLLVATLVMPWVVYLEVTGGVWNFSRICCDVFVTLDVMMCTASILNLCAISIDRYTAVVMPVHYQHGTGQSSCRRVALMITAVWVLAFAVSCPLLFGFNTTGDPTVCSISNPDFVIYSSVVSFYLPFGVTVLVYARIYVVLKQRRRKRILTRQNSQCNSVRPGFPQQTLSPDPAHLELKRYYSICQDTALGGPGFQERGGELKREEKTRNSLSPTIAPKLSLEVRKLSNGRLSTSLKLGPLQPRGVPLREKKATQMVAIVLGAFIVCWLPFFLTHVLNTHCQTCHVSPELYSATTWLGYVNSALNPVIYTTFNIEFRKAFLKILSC", "assay": "Displacement of [3H]-(R)-(+)-7-OH-DPAT from recombinant human D3 receptor expressed in HEK293 cell membranes measured after 90 mins by microbeta scintillation counting analysis"}, "D(2) dopamine receptor": {"target": "D(2) dopamine receptor (Homo sapiens, UniProt P14416)", "sequence (P14416 whole entry)": "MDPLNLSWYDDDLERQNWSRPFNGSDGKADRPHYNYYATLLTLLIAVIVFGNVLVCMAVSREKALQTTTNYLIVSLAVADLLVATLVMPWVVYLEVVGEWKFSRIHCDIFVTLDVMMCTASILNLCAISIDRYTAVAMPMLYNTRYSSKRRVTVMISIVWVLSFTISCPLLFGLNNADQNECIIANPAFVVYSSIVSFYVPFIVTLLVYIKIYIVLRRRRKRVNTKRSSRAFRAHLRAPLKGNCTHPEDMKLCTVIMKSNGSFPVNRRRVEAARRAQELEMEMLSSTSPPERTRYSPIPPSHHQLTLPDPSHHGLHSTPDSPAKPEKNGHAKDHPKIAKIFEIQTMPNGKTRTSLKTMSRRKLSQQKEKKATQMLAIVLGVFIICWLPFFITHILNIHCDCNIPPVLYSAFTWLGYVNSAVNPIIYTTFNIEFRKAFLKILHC", "assay": "Displacement of [3H]-(R)-(+)-7-OH-DPAT from recombinant human D2L receptor expressed in HEK293 cell membranes measured after 90 mins by microbeta scintillation counting analysis"}}, "note": "pKi: −log10 of the molar value."}
{"smiles": "CC1=COC(c2ccc(N)nc2)CN1CC1CC1CCNC(=O)c1cc2ccccc2[nH]1", "note": "(stereo unspecified)", "values": [{"measurement": "Drug metabolism", "setting": "[1]", "result": "Metabolite_Detected"}]}
{"smiles": "CCCN1CCO[C@@H]2c3cc(OCCCCNC(=O)c4nc5ccccc5s4)ccc3OC[C@H]21", "values": [{"measurement": "Ratio Ki", "setting": "Homo sapiens [2]", "result": 4.14}]}
{"smiles": "Oc1ccc2c(c1)[C@H]1OCCN[C@@H]1CO2", "values": [{"measurement": "Ratio Ki", "setting": "Homo sapiens [2]", "result": 10.5}]}
{"smiles": "C[C@H]1CO[C@H](c2ccc(N)nc2)CN1C/C=C/COc1ccc2c(c1)NC(=O)CC2", "values": [{"measurement": "Ratio Ki", "setting": "Homo sapiens [2]", "result": 0.289}]}
{"smiles": "CCCN1CCO[C@@H]2c3cc(OCCCCNC(=O)c4cc5cccnc5[nH]4)ccc3OC[C@H]21", "values": [{"measurement": "Ratio Ki", "setting": "Homo sapiens [2]", "result": 3.12}]}
{"smiles": "C[C@H]1CO[C@@H](c2ccc(N)nc2)CN1C/C=C/COc1ccc2c(c1)NC(=O)CC2", "values": [{"measurement": "Ratio Ki", "setting": "Homo sapiens [2]", "result": 0.297}]}
{"smiles": "O=C(NCCCCNC1COc2ccc(O)cc2C1=O)c1cc2ccccc2[nH]1", "note": "(stereo in doubt; 19b)", "values": [{"measurement": "Ratio Ki", "setting": "Homo sapiens [2]", "result": 0.808}]}
{"smiles": "C[C@H]1CO[C@H](c2ccc(N)nc2)CN1CCCCOc1ccc2c(c1)NC(=O)CC2", "values": [{"measurement": "Ratio Ki", "setting": "Homo sapiens [2]", "result": 0.11}]}
{"smiles": "CCCN1CCO[C@@H]2c3cc(OCCCCN4C(=O)c5ccccc5C4=O)ccc3OC[C@H]21", "values": [{"measurement": "Ratio Ki", "setting": "Homo sapiens [2]", "result": 2.11}]}
{"smiles": "C[C@H]1CO[C@@H](c2ccc(N)nc2)CN1CC1CC1CNC(=O)c1cc2ccccc2[nH]1", "note": "(stereo in doubt; form 2)", "values": [{"measurement": "Ratio Ki", "setting": "Homo sapiens [2]", "result": 1.75}]}
{"smiles": "C[C@H]1COC(c2ccc(N)nc2)CN1CCCCOc1ccc2c(c1)NC(=O)CC2", "note": "(stereo partly specified)", "values": [{"measurement": "Ratio Ki", "setting": "Homo sapiens [2]", "result": 0.653}, {"measurement": "Ratio Ki", "setting": "Homo sapiens [3]", "result": 18.6}]}
{"smiles": "CCCN1CCO[C@@H]2c3cc(OCCCCNC(=O)c4cc5ccccc5[nH]4)ccc3OC[C@H]21", "values": [{"measurement": "Ratio Ki", "setting": "Homo sapiens [2]", "result": 6.3}]}
{"smiles": "CCCN(CCC)c1ccc(C2CN(CCC)[C@@H](C)CO2)cn1", "note": "(stereo partly specified)", "values": [{"measurement": "pKi", "setting": "D(4) dopamine receptor", "result": "< 4.00"}, {"measurement": "Ratio Ki", "setting": "Homo sapiens [2]", "result": 0.391}]}
{"smiles": "C[C@H]1CO[C@@H](c2ccc(N)nc2)CN1", "values": [{"measurement": "Ratio Ki", "setting": "Homo sapiens [2]", "result": 5.52}, {"measurement": "Drug metabolism", "setting": "[1]", "result": "Metabolite_Detected"}]}
{"smiles": "C[C@H]1CO[C@H](c2ccc(N)nc2)CN1CC1CC1CNC(=O)c1cc2ccccc2[nH]1", "note": "(stereo in doubt; form 2)", "values": [{"measurement": "Ratio Ki", "setting": "Homo sapiens [2]", "result": 0.235}]}
{"smiles": "C[C@H]1CO[C@H](c2ccc(N)nc2)CN1CC1CC1CNC(=O)c1cc2ccccc2[nH]1", "note": "(mixture of isomers) [listing 1 of 2 here]", "values": [{"measurement": "pKi", "setting": "D(3) dopamine receptor", "result": 4.18}, {"measurement": "pKi", "setting": "D(2) dopamine receptor", "result": 4.85}]}
{"smiles": "CCCN1CCO[C@@H]2c3cc(OCCCCOc4ccc5c(c4)NC(=O)CC5)ccc3OC[C@H]21", "values": [{"measurement": "Ratio Ki", "setting": "Homo sapiens [2]", "result": 6.35}]}
{"smiles": "CCCN1CC(c2ccc(N)nc2)OC[C@@H]1C", "note": "(stereo partly specified)", "values": [{"measurement": "Ratio Ki", "setting": "Homo sapiens [2]", "result": 9.41}, {"measurement": "Ratio Ki", "setting": "Homo sapiens [3]", "result": 1.58}]}
{"smiles": "C[C@H]1CO[C@@H](c2ccc(N)nc2)CN1CC1CC1CNC(=O)c1cc2ccccc2[nH]1", "note": "(stereo in doubt; form 4)", "values": [{"measurement": "Ratio Ki", "setting": "Homo sapiens [2]", "result": 0.435}]}
{"smiles": "CCCN1CCO[C@@H]2c3cc(OCCCCNC(=O)c4cc5ccccc5o4)ccc3OC[C@H]21", "values": [{"measurement": "Ratio Ki", "setting": "Homo sapiens [2]", "result": 1.57}]}
{"smiles": "C[C@H]1CO[C@H](c2ccc(N)nc2)CN1CC1CC1CNC(=O)c1cc2ccccc2[nH]1", "note": "(stereo in doubt; form 1)", "values": [{"measurement": "Ratio Ki", "setting": "Homo sapiens [2]", "result": 0.431}]}
{"smiles": "C[C@H]1CO[C@H](c2ccc(N)nc2)CN1", "values": [{"measurement": "Ratio Ki", "setting": "Homo sapiens [2]", "result": 4.67}]}
{"smiles": "CCc1cc(Cl)c(OC)c(N2CCN(CCCCOc3ccc4c(c3)NC(=O)CC4)CC2)c1", "values": [{"measurement": "pKi", "setting": "D(3) dopamine receptor", "result": 7.39}, {"measurement": "Ratio Ki", "setting": "Homo sapiens [2]", "result": 0.0455}, {"measurement": "pKi", "setting": "D(2) dopamine receptor", "result": 8.73}]}
{"smiles": "C[C@H]1CO[C@@H](c2ccc(N)nc2)CN1CCCCOc1ccc2c(c1)NC(=O)CC2", "values": [{"measurement": "Ratio Ki", "setting": "Homo sapiens [2]", "result": 1.11}]}
{"smiles": "O=C(NCCCCNC1COc2ccc(O)cc2C1=O)c1cc2ccccc2[nH]1", "note": "(stereo in doubt; 19a)", "values": [{"measurement": "Ratio Ki", "setting": "Homo sapiens [2]", "result": 0.71}]}
{"smiles": "C[C@H]1COC(c2cnc(N)c(O)c2)CN1CC1CC1CCNC(=O)c1cc2ccccc2[nH]1", "note": "(stereo partly specified)", "values": [{"measurement": "Drug metabolism", "setting": "[1]", "result": "Metabolite_Detected"}]}
{"smiles": "CCCN1CCO[C@@H]2c3cc(OCCCCNC(=O)c4ccc5scnc5c4)ccc3OC[C@H]21", "values": [{"measurement": "Ratio Ki", "setting": "Homo sapiens [2]", "result": 4.3}]}
{"smiles": "C[C@H]1CO[C@@H](c2ccc(N)nc2)CN1CC1CC1CNC(=O)c1cc2ccccc2[nH]1", "note": "(stereo in doubt; form 1)", "values": [{"measurement": "Ratio Ki", "setting": "Homo sapiens [2]", "result": 0.182}]}
{"smiles": "CCCN1CCO[C@@H]2c3cc(O)ccc3OC[C@H]21", "values": [{"measurement": "Ratio Ki", "setting": "Homo sapiens [2]", "result": 12.1}, {"measurement": "Ratio Ki", "setting": "Homo sapiens [3]", "result": 15.7}]}
{"smiles": "C[C@H]1CO[C@@H](c2ccc(N)nc2)CN1CC1CC1CNC(=O)c1cc2ccccc2[nH]1", "note": "(stereo in doubt; form 3)", "values": [{"measurement": "Ratio Ki", "setting": "Homo sapiens [2]", "result": 0.498}]}
{"smiles": "O=C1CCc2ccc(OCCCCN3CCO[C@@H]4c5cc(O)ccc5OC[C@H]43)cc2N1", "values": [{"measurement": "Ratio Ki", "setting": "Homo sapiens [2]", "result": 0.554}]}
{"smiles": "C[C@H]1CO[C@H](c2ccc(N)nc2)CN1CC1CC1CNC(=O)c1cc2ccccc2[nH]1", "note": "(mixture of isomers) [listing 2 of 2 here]", "values": [{"measurement": "Ratio Ki", "setting": "Homo sapiens [2]", "result": 0.213}]}
{"smiles": "CCCN1CCO[C@@H]2c3cc(OCCCCNC(=O)c4ccc5c(c4)Cc4ccccc4-5)ccc3OC[C@H]21", "values": [{"measurement": "Ratio Ki", "setting": "Homo sapiens [2]", "result": 8.33}]}
